Experiments:
[1] = Compound stability in human liver microsomes; format: in vitro ADME
Experimental: (§1) Human or rat liver microsomes incubations were conducted in duplicate in polypropylene tubes. The typical incubation mixtures consisted of human or rat liver microsomes (0.5 mg protein/mL), compounds of interest (5 μM) and NADPH (1.0 mM) in a total volume of 200 μL potassium phosphate buffer (PBS, 100 mM, pH 7.4). Compounds were dissolved in DMSO and diluted with PBS such that the final concentration of DMSO was 0.05%. The enzymatic reactions were commenced with the addition of protein after a 3-min preincubation and incubated in a water bath open to the air at 37° C. Reactions were terminated at various time points (0, 5, 10, 15, 30, 60 min) by adding equal volume of ice-cold acetonitrile. The samples were stored at −80° C. until LC/MS/MS assays.
(§2) The concentrations of compounds in the incubation mixtures of human or rat liver microsomes were determined by a LC/MS/MS method. The ranges of the linearity in the concentration range were determined for each tested compounds.
(§3) A parallel incubation was performed using denatured microsomes as the negative control, and reactions were terminated at various time points (0, 15, 60 min) after incubation at 37° C.
(§4) Dextromethorphan (70 μM) was selected as the positive control, and reactions were terminated at various time points (0, 5, 10, 15, 30, 60 min) after incubation at 37° C. Both positive and negative control samples were included in each assay to ensure the integrity of the microsomal incubation system.
(§5) Alternatively, the stability of some of the compounds disclosed herein in human (or rat) liver microsomes were also conducted in the following protocol. The incubations were conducted in duplicate in polypropylene tubes. The typical incubation mixtures consisted of liver microsomes (final concentration: 0.5 mg protein/mL), compounds (final concentration: 1.5 μM) in a total volume of 30 μL K-buffer (contain 1.0 mM EDTA, 100 mM, pH7.4). Compounds were dissolved in DMSO and diluted with K-buffer such that the final concentration of DMSO was 0.2%. The enzymatic reactions were commenced with the addition of 15 μL of NADPH (final concentration: 2 mM) after 10 min preincubation and incubated in a 37° C. incubator. Reactions were terminated at various time points (0, 15, 30, 60 min) by adding 135 μL acetonitrile (contain IS). Protein is removed by centrifugation with 4000 rpm, 10 min. Supernatant was collected for LCMS/MS analysis
(§6) In the above protocol, ketanserin (1 μM) was selected as the positive control, and reactions were terminated at various time points (0, 15, 30, 60 min) after incubation at 37° C. The positive control sample was included in each assay to ensure the integrity of the microsomal incubation system.
(§7) The concentrations of compounds in human or rat liver microsome incubations were plotted as a percentage of the relevant zero time point control for each reaction. The in vivo CLint were extrapolated (ref: Naritomi, Y.; Terashita, S.; Kimura, S.; Suzuki, A.; Kagayama, A.; and Sugiyama, Y.; Prediction of human hepatic clearance from in vivo animal experiments and in vitro metabolic studies with liver microsomes from animals and humans. Drug Metab. Dispos., 2001, 29: 1316-1324).

[2] = Pharmacokinetic profiles in rats; format: in vivo; conditions: rat, plasma
Experimental: The LC/MS/MS system used in the analysis consists of an Agilent 1200 Series vacuum degasser, binary pump, well-plate autosampler, thermostatted column compartment, the Agilent G6430 Triple Quadrupole Mass Spectrometer with an electrosprayionization (ESI) source. Quantitative analysis was carried out using MRM mode. The parameters for MRM transitions are in the Table A.
An Agilent XDB-C18, 2.1×30 mm, 3.5 μM column was used for the analysis. 5 μL of the samples were injected. Analysis condition: The mobile phase was 0.1% formic acid in water (A) and 0.1% formic acid in methanol (B). The flow rate was 0.4 mL/min. And the gradient of Mobile phase was in the Table B.
Alternatively, an Agilent 6330 series LC/MS/MS spectrometer equipped with G1312A binary pumps, a G1367A autosampler and a G1314C UV detector were used in the analysis. An ESI source was used on the LC/MS/MS spectrometer. The analysis was done in positive ion mode as appropriate and the MRM transition for each analyte was optimized using standard solution. A Capcell MP-C18 100×4.6 mm I.D., […] column (Phenomenex, Torrance, Calif., USA) was used during the analysis. The mobile phase was 5 mM ammonia acetate, 0.1% MeOH in water (A): 5 mM ammonia acetate, 0.1% MeOH in acetonitrile (B) (70/30, v/v). The flow rate was 0.6 mL/min. Column was maintained at ambient temperature. 20 μL of the samples were injected.
The compounds disclosed herein are assessed in pharmacokinetic studies in mice, rats, dogs or monkeys. The compounds are administered as a water solution, 2% HPMC+1% TWEEN®80 in water solution, 5% DMSO+5% solutol in saline, 4% MC suspension or capsule. For the intravenous administration, the animals are generally given at 1 or 2 mg/kg dose. For the oral (p.o.) dosing, mice and rats are generally given 5 or 10 mg/kg dose, and dogs and monkeys are generally given 10 mg/kg dose. The blood samples (0.3 mL) are drawn at 0.25, 0.5, 1.0, 2.0, 3.0, 4.0, 6.0, 8.0, 12 and 24 h time points or 0.083, 0.25, 0.5, 1.0, 2.0, 4.0, 6.0, 8.0 and 24 h time points and centrifuged at 3,000 or 4000 rpm for 2 to 10 min. The plasma solutions are collected, and stored at −20° C. or −70° C. until analyzed by LC/MS/MS as described above.

[3] = Compound stability in rat liver microsomes; format: in vitro ADME
Experimental: as §1, §2, §3, §4, §5, §6, §7

[4] = pH 7.4, 0.5 mg protein/mL, NADPH, 37° C.
[5] = pH 7.4, in vivo CLint extrapolated

half-life [1, 4]: 3.13 h | CLint scaled [1, 5]: 0.556 L/h/kg | AUC(0-t) ([2]; iv dosing, 1 mg/kg): 1.19 µg·h/mL | half-life ([2]; iv dosing, 1 mg/kg): 1.51 h | Vd ([2]; iv dosing, 1 mg/kg, read-out: Vss): 1.2 L/kg | bioavailability ([2]; po, bioavailability (F)): 163% | half-life [3, 4]: 1.48 h | CLint scaled [3, 5]: 1.68 L/h/kg
Compound: Nc1cc(Oc2ccc(NC(=O)c3c4n(n(-c5ccccc5)c3=O)CCC4)cc2)ccn1 [Ex. 1, N-(4-((2-aminopyridin-4-yl)oxy)phenyl)-2-oxo-1-phenyl-2,4,5,6-tetrahydro-1H-pyrrolo[1,2-b]pyrazole-3-carboxamide]

From US20150299219A1, “BICYCLIC PYRAZOLONE COMPOUNDS AND METHODS OF USE” (Calitor Sciences, LLC, priority 2014, published 2015)
